Experimental data as given in publication PMC10649008 (Antimicrobial Agents and Chemotherapy, 2023).
Where “and” joins values, the source holds several entries; their conditions need not be identical. Identical values can stand only once. Like-named read-outs stand apart in the source and are kept apart here.

Tests used:
[1] = Single-dose plasma pharmacokinetics of telavancin in pediatric subjects (noncompartmental analysis); assay type: in vivo, human; conditions: single 10 mg/kg IV infusion over 60 min; for Tmax / Cmax / half-life: iv; for Tmax: median (minimum–maximum), read-out: T max (time at maximum concentration); for Cmax: read-out: C max (maximum plasma concentration); for half-life: read-out: T 1/2 (terminal elimination half-life) (converted)
Protocol: The drug was infused over 60 min on Day 1. Blood samples were collected at 1, 1.5, 2, 6, 12, and 24 h following the start of infusion for PK analysis.
Subjects with missing early PK samples were included in the PK population for plasma concentrations at each collected time point, but they were excluded from the PK modeling. […] The primary endpoints calculated from the plasma concentration-time data were maximum observed plasma concentration (C max), time to reach maximum plasma concentration (T max), area under the plasma concentration versus time curve from time 0 to the last sample with measurable analyte concentration (AUC0-last), area under the concentration versus time curve extrapolated to infinity (AUCinf), and terminal elimination half-life (T 1/2). CL and apparent steady-state volume of distribution (Vss) were also calculated from the plasma concentration-time data. PK parameters were calculated using noncompartmental analysis with Phoenix WinNonlin v8.1 (Certara, Princeton, NJ, USA).
For calculation of mean concentrations at each time point and generation for mean concentration versus time profiles, all values below the limit of quantification (BLQ) were set to 0. […] For the NCA, actual infusion durations and actual sampling times were used. Infusion duration was calculated as the difference between the start of infusion time and the end of infusion time. Actual sampling times were calculated as the difference between the start of infusion time and the sampling time.
For PK analysis and individual concentration versus time plots, a concentration that was BLQ was assigned a value of 0, if it occurred in a profile before the first measurable concentration and was set to missing thereafter, if two BLQ values occurred in succession after C max, the profile was deemed to have terminated at the first BLQ value, and any subsequent concentrations were omitted from PK calculations.

[2] = Description: All study procedures were reviewed and approved by the respective Institutional Review Board for each study site. Prior to any study procedures, written informed consent from a parent or legal guardian and assent (if appropriate for older patients) were obtained. The patient population consisted of subjects aged >12 months to <17 years of age who required systemic antibiotic therapy for the treatment or prevention of known or suspected bacterial infection. Subjects were enrolled into four cohorts stratified by age: adolescents (12–17 years of age), older children (6–11 years of age), younger children (2–5 years of age), and infants (1–2 years of age). […] The study consisted of a screening period followed by a treatment period and a safety follow-up period through Day 8 ± 1 day.
(§1) Safety was monitored during both the screening and treatment periods by physical exams, vital signs, urinalysis, and clinical laboratory measures (complete blood count with differential, serum chemistry, creatinine, and liver enzymes); AEs and concomitant medications were recorded from screening through follow-up on Day 8 (± 1 day). Medical and medication history and demographics were collected at screening. Vital signs (heart rate, blood pressure, respiratory rate, and body temperature) were collected at screening, Days 1 and 2 of the study.

[3] = post-dose, single 10 mg/kg IV
Protocol: as §1

[4] = Healthy adults, N = 42, single 10 mg/kg IV dose, mean ± SD, cited from earlier work
[5] = five courses in three adolescent cystic fibrosis patients; 8.7–10 mg/kg daily for up to 3 weeks; cited from earlier work
[6] = Cohort 2 (6–11 years), N = 6, plasma, noncompartmental, mean ± SD
[7] = Cohort 3 (2–5 years), N = 1, plasma, noncompartmental
[8] = human, in vivo, 10 mg/kg, Cohort 1 (12–17 years), N = 13, plasma, mean ± SD
[9] = human, in vivo, 10 mg/kg, Cohort 2 (6–11 years), N = 6, plasma, mean ± SD
[10] = Cohort 1 (12–17 years), of 16 AEs, single 10 mg/kg IV
[11] = Cohort 2 (6–11 years), of 11 AEs, single 10 mg/kg IV
[12] = all cohorts, three of 22 subjects, single 10 mg/kg IV
[13] = all cohorts, two of 22 subjects, single 10 mg/kg IV

## CCCCCCCCCCNCCN[C@@]1(C)C[C@H](O[C@H]2[C@H](Oc3c4cc5cc3Oc3ccc(cc3Cl)[C@@H](O)[C@@H](NC(=O)[C@@H](CC(C)C)NC)C(=O)N[C@@H](CC(N)=O)C(=O)N[C@H]5C(=O)N[C@H]3C(=O)N[C@H](C(=O)N[C@H](C(=O)O)c5cc(O)c(CNCP(=O)(O)O)c(O)c5-c5cc3ccc5O)[C@H](O)c3ccc(c(Cl)c3)O4)O[C@H](CO)[C@@H](O)[C@@H]2O)O[C@@H](C)[C@H]1O [telavancin]
[1]; Cohort 1 (12–17 years), N = 13–14, nominal time 1 h after start of infusion, mean ± SD
  Mean plasma telavancin concentration: 58.1 ± 8.38
[1]; Cohort 1 (12–17 years), N = 13–14, nominal time 1.5 h, mean ± SD
  Mean plasma telavancin concentration: 46.2 ± 7.01
[1]; Cohort 1 (12–17 years), N = 13–14, nominal time 2 h, mean ± SD
  Mean plasma telavancin concentration: 37.4 ± 5.26
[1]; Cohort 1 (12–17 years), N = 13–14, nominal time 6 h, mean ± SD
  Mean plasma telavancin concentration: 19.8 ± 3.58
[1]; Cohort 1 (12–17 years), N = 13–14, nominal time 12 h, mean ± SD
  Mean plasma telavancin concentration: 8.84 ± 3.51
[1]; Cohort 1 (12–17 years), N = 13–14, nominal time 24 h, mean ± SD
  Mean plasma telavancin concentration: 2.14 ± 0.922
[1]; Cohort 2 (6–11 years), N = 6, mean ± SD
  CL (clearance): 30.0 ± 8.1 mL/h/kg
[1]; [6]
  AUC0-inf (area under the curve extrapolated to infinity): 351 ± 79.7 µg·h/mL
  AUC0-last (area under the curve from time zero until the last PK sample): 333 ± 74.2 µg·h/mL
[1]; Cohort 2 (6–11 years), N = 6–7, nominal time 1 h after start of infusion, mean ± SD
  Mean plasma telavancin concentration: 60.1 ± 11.9
[1]; Cohort 2 (6–11 years), N = 6–7, nominal time 1.5 h, mean ± SD
  Mean plasma telavancin concentration: 48.4 ± 8.66
[1]; Cohort 2 (6–11 years), N = 6–7, nominal time 2 h, mean ± SD
  Mean plasma telavancin concentration: 41.9 ± 7.65
[1]; Cohort 2 (6–11 years), N = 6–7, nominal time 6 h, mean ± SD
  Mean plasma telavancin concentration: 20.7 ± 3.64
[1]; Cohort 2 (6–11 years), N = 6–7, nominal time 12 h, mean ± SD
  Mean plasma telavancin concentration: 9.20 ± 2.50
[1]; Cohort 2 (6–11 years), N = 6–7, nominal time 24 h, mean ± SD
  Mean plasma telavancin concentration: 2.08 ± 1.23
[1]; Cohort 3 (2–5 years), N = 1
  CL (clearance): 43.7 mL/h/kg
  T max (time at maximum concentration): 1.18 h
[1]; Cohort 3 (2–5 years), N = 1, nominal time 1 h after start of infusion
  Mean plasma telavancin concentration: 53.1
[1]; Cohort 3 (2–5 years), N = 1, nominal time 1.5 h
  Mean plasma telavancin concentration: 45.0
[1]; Cohort 3 (2–5 years), N = 1, nominal time 2 h
  Mean plasma telavancin concentration: 37.3
[1]; Cohort 3 (2–5 years), N = 1, nominal time 6 h
  Mean plasma telavancin concentration: 18.0
[1]; Cohort 3 (2–5 years), N = 1, nominal time 12 h
  Mean plasma telavancin concentration: 2.67
[1]; Cohort 3 (2–5 years), N = 1, nominal time 24 h
  Mean plasma telavancin concentration: 0.146
[1]; Cohort 3 (2–5 years), N = 1, plasma
  C max (maximum plasma concentration): 53.1 µg/mL
[1]; Cohort 3 (2–5 years), N = 1, plasma, 10 mg/kg
  T 1/2 (terminal elimination half-life): 2.73 h
[1]; [7]
  AUC0-inf (area under the curve extrapolated to infinity): 229 µg·h/mL
  AUC0-last (area under the curve from time zero until the last PK sample): 228 µg·h/mL
[1]; human, in vivo, 10 mg/kg, Cohort 1 (12–17 years), N = 13
  Tmax: 1.02 h
[1]; [8]
  Cmax: 58.3 ± 8.4 µg/mL
  half-life: 336 ± 60.6 min
[1]; human, in vivo, 10 mg/kg, Cohort 2 (6–11 years), N = 6
  Tmax: 1.09 h
[1]; [9]
  Cmax: 60.1 ± 11.9 µg/mL
  half-life: 311 ± 45.1 min
[1]; human, in vivo, Cohort 1 (12–17 years), N = 13, mean ± SD, read-out: CL (clearance) (converted)
  clearance: 0.497 mL/min/kg
[1]; human, in vivo, Cohort 1 (12–17 years), N = 13, plasma, noncompartmental, mean ± SD, read-out: AUC0-inf (area under the curve extrapolated to infinity)
  AUC(0-inf): 345 ± 58.5 µg·h/mL
[1]; human, in vivo, Cohort 1 (12–17 years), N = 13, plasma, noncompartmental, mean ± SD, read-out: AUC0-last (area under the curve from time zero until the last PK sample)
  AUC(0-t): 326 ± 50 µg·h/mL
[2]; Cohort 1 (12–17 years), N = 14, across six patients, single 10 mg/kg IV
  Number of adverse events: 16
[2]; Cohort 1 (12–17 years), fifteen of the 16 events
  Adverse events deemed probably related to telavancin administration: 94%
[2]; [10]
  Number of adverse events mild in severity: 13
  Number of adverse events moderate in severity: 3
[2]; Cohort 2 (6–11 years), N = 7, across four patients, single 10 mg/kg IV
  Number of adverse events: 11
[2]; [11]
  Number of adverse events mild in severity: nine
  Number of adverse events moderate in severity: two
[2]; Cohort 2 (6–11 years), six of the 11 events
  Adverse events considered probably related to telavancin administration: 55%
[2]; Cohort 3 (2–5 years), single subject, single 10 mg/kg IV
  Adverse events: No AEs were reported
[2]; all cohorts, 10 of the 22 subjects, single 10 mg/kg IV, through Day 8 ± 1
  Subjects with adverse events: 45%
[2]; all cohorts, 22 subjects 2–17 years, single 10 mg/kg IV, through Day 8 ± 1
  Total number of adverse events (AEs): 27
[2]; all cohorts, 22 subjects, single 10 mg/kg IV
  Serious adverse events: no serious AEs
[2]; all cohorts, four of 22 subjects, single 10 mg/kg IV
  Subjects with nausea: 18%
[2]; [12]
  Subjects with foamy urine: 14%
  Subjects with taste disturbance/metallic taste: 14%
[2]; [13]
  Subjects with dizziness: 9%
  Subjects with headache: 9%
[2]; all pediatric age cohorts, single 10 mg/kg IV
  Tolerability of a single dose: well-tolerated
[2]; one subject in Cohort 2 (6–11 years), ECG 1.5–2.5 h after start of infusion, moderate, resolved prior to Day 8
  QT interval (12-lead ECG): prolonged QT interval
[2]; single 10 mg/kg infusion administered over an hour, all cohorts
  Infusion reactions: no infusion reactions
[2]; worsened ALT and LDH in one Cohort 1 subject, prolonged QT in one Cohort 2 subject, moderate, resolved prior to Day 8
  Clinically significant abnormalities following telavancin administration: three
[3]; Cohort 1 (12 to 17 years), 9 subjects, pre-dose 0.6 ± 0.2 (N = 14)
  Creatinine: 1.0 ± 1.1 mg/dL
[3]; Cohort 1 (12 to 17 years), 9 subjects, pre-dose 0.6 ± 0.3 (N = 14)
  Total bilirubin: 0.3 ± 0.2 mg/dL
[3]; Cohort 1 (12 to 17 years), 9 subjects, pre-dose 10.3 ± 3.1 (N = 14)
  Leukocytes: 7.3 ± 2.0 x10^9/L
[3]; Cohort 1 (12 to 17 years), 9 subjects, pre-dose 12.2 ± 1.7 (N = 14)
  Hemoglobin: 12.1 ± 1.4 g/dL
[3]; Cohort 1 (12 to 17 years), 9 subjects, pre-dose 25.9 ± 15.1 (N = 14)
  Alanine aminotransferase: 37.4 ± 24.2 IU/L
[3]; Cohort 1 (12 to 17 years), 9 subjects, pre-dose 50.9 ± 56.2 (N = 14)
  Aspartate aminotransferase: 72.8 ± 72.0 IU/L
[3]; Cohort 1 (12 to 17 years), 9 subjects, pre-dose 226 ± 69.1 (N = 14)
  Platelets: 236 ± 85.9 x10^9/L
[3]; Cohort 1 (12 to 17 years), 9 subjects, pre-dose 361 ± 247 (N = 14)
  Lactate dehydrogenase: 439 ± 270 IU/L
[3]; Cohort 2 (6 to 11 years), 6 subjects, pre-dose 0.4± 0.1 (N = 7)
  Creatinine: 0.4 ± 0.1 mg/dL
[3]; Cohort 2 (6 to 11 years), 6 subjects, pre-dose 0.6 ± 0.5 (N = 7)
  Total bilirubin: 0.5 ± 0.3 mg/dL
[3]; Cohort 2 (6 to 11 years), 6 subjects, pre-dose 8.3 ± 3.0 (N = 7)
  Leukocytes: 6.3 ± 1.3 x10^9/L
[3]; Cohort 2 (6 to 11 years), 6 subjects, pre-dose 11.7 ± 1.4 (N = 7)
  Hemoglobin: 11.9 ± 1.4 g/dL
[3]; Cohort 2 (6 to 11 years), 6 subjects, pre-dose 30.9 ± 12.2 (N = 7)
  Alanine aminotransferase: 36.8 ± 19.4 IU/L
[3]; Cohort 2 (6 to 11 years), 6 subjects, pre-dose 41.6 ± 26.0 (N = 7)
  Aspartate aminotransferase: 46.7 ± 40.7 IU/L
[3]; Cohort 2 (6 to 11 years), 6 subjects, pre-dose 267 ± 73.6 (N = 7)
  Platelets: 289 ± 105.5 x10^9/L
[3]; Cohort 3 (2 to 5 years), N = 1, pre-dose 0.2 ± 0.0
  Creatinine: 0.2 ± 0.0 mg/dL
[3]; Cohort 3 (2 to 5 years), N = 1, pre-dose 0.4 ± 0.0
  Total bilirubin: 0.4 ± 0.0 mg/dL
[3]; Cohort 3 (2 to 5 years), N = 1, pre-dose 4.6 ± 0.0
  Leukocytes: 7.5 ± 0.0 x10^9/L
[3]; Cohort 3 (2 to 5 years), N = 1, pre-dose 10.0 ± 0.0
  Hemoglobin: 10.3 ± 0.0 g/dL
[3]; Cohort 3 (2 to 5 years), N = 1, pre-dose 41.0 ± 0.0
  Aspartate aminotransferase: 37.0 ± 0.0 IU/L
[3]; Cohort 3 (2 to 5 years), N = 1, pre-dose 72.0 ± 0.0
  Alanine aminotransferase: 62.0 ± 0.0 IU/L
[3]; Cohort 3 (2 to 5 years), N = 1, pre-dose 148 ± 0.0
  Platelets: 195 ± 0.0 x10^9/L
[3]; Cohort 3 (2 to 5 years), N = 1, pre-dose 477 ± 0.0
  Lactate dehydrogenase: 480 ± 0.0 IU/L
[4]; 10 mg/kg
  AUC0-inf (area under the curve extrapolated to infinity): 747 µg·h/mL and 747 ± 129 µg·h/mL
  T 1/2 (terminal elimination half-life): 8.0 h and 8.0 ± 1.5 h
[4]
  C max (maximum plasma concentration): 93.6 ± 14.2 µg/mL
  CL (clearance): 13.9 ± 2.9 mL/h/kg
[5]
  Serum creatinine across courses of treatment: remained stable
